# Measured values: patent US12480848B2, “Crack sensor, preparation method therefor, and application thereof in micro-force measurement” (QILU UNIVERSITY OF TECHNOLOGY (SHANDONG ACADEMY OF SCIENCES), priority 2022, dated 2025)
# Read-outs that look alike come from different tables or passages of the source.
# Tested on: cardiomyocytes (CM)
# Assay: Drug evaluation: CM contractility (contractile force, beating rate) measured with the Ag/CNT-PDMS crack sensor
# Settings: for EC50: Cardiomyocyte
structure (smiles),measurement,setting,value
CC(C)NCC(O)c1ccc(O)c(O)c1 (stereo not shown) [isoproterenol],EC50,read-out: apparent EC50 of CM beating rate (dose-response curve),71.4 nM
same,EC50,read-out: apparent EC50 of CM contractile force (dose-response curve),92.6 nM
same,contractile force and beating rate,concentration increased from 0.1 nM to 1 μM,gradually increased
same,CM contractility,when the concentration reached 100 nM,became saturated
